Source: patent publication US12358859B2, “Series of compounds for treatment of skin diseases and other conditions” (Unigen, Inc., priority 2018, dated 2025)
pIC50: −log10 of the molar value. ≈ marks a conversion by molar mass, not a printed value. Read-outs that look alike come from different tables or passages of the source.

Columns and labels:
[1] = tested on: murine melanoma cells B16-F1; test: Cell viability, tetrazolium reduction assay; type: cell-based
Method: (§1) All test compounds were initially dissolved in 100% DMSO at a concentration of 400 mM. Then, 6 μL of 400 mM test compounds were added to 1.2 mL of the cell growth media giving a final concentration of 2 mM for the test compound and concentration of 0.5% for DMSO. The compounds were centrifuged for 1 h at 20,000×g. Supernatants (1 mL) were collected and filtered through sterile 0.2 μm filters. The compounds were serially diluted in two-fold increments in the sterile cell growth media supplemented with 0.5% DMSO, thus keeping the concentration of DMSO constant for all samples. These serially diluted compounds were subsequently used as two-fold concentrated stock solutions in the melanin production and cell viability assays. Equal volumes of 2× compounds were mixed with media containing 2 nM α-MSH to give a final concentration of 1 nM α-MSH, 0.5% DMSO, and 1× concentration of test compounds.
Viability of cells was measured using standard tetrazolium reduction assay based on redox potential of live cells. Cells were seeded in a clear-bottom 96-well plate in RPMI 1640 media with Glutamax (Fisher Scientific, cat #61870036) at a density of 5,000 cells/well. Cells were treated with test compounds dissolved in 100 μL RPMI 1640 media and incubated for 48 hours at 37° C. in a humidified atmosphere of 95% air and 5% CO2.
After incubation, 20 μL of Aqueous One Solution were added to each well and the plate was returned to the incubator for 30 minutes. Conversion of tetrazolium was monitored by measuring absorbance of cell wells at 492 nm using a TECAN Genios plate reader.
(§2) More than 90% percent of the melanin produced by cultured melanoma cells is found in extra-cellular media. Therefore, at the end of the experiment melanin-containing media was collected and relative amounts of melanin were determined by absorption at 492 nm. Viability of cells was determined by a commonly used colorimetric procedure that is based on conversion of the tetrazolium compounds to colored formazan products (using Promega's CellTiter96 AqueousOne assay). Dehydrogenase enzymes in metabolically active cells accomplish this conversion, and the amount of formazan product is directly proportional to the number of living cells in culture. Mean (n=2) absorption of wells containing no cells was subtracted as blanks. The results were computed as percent of wells that contained the cells but no test compounds.

[2] = molecular target: 5-lipoxygenase from potato; test: Lipoxygenase Inhibition Assay; type: biochemical; conditions: read-out: Anti-inflammatory (IC50) 5-LOX
Method: One of the most important pathway involved in the inflammatory response is produced by non-heme, ion-containing lipoxygenases (5-LOX, 12-LOX and 15-LOX) which catalyze the oxidation of fatty acids such as AA to produce the hydoperoxides 5-, 12- and 15-HEPTE, which are then converted to leukotrienes. A Lipoxygenase Inhibition Assay was carried out using commercial kit from Cayman Chemical (cat #760700, 5-lipoxygenase from potato, cat #60400). The test article and positive control were dissolved in 1% DMSO. 90 μL of diluted potato lipoxygenase enzyme and 10 μL inhibitor were added to a flat-bottom clear 96-well microplate. The plate was pre-incubated for five minutes at room temperature. The reaction was initiated by the addition of 10 μL linoleic acid substrate. The plate was then placed on a shaker for 10 minutes at room temperature. 100 μL Chromogen solution was added to each well and the plate was shaken again for five minutes. The absorbance was read at 492 nm using a TECAN Genios plate reader. The inhibitor concentration vs. % of inhibition was plotted and the IC50 determined.

[3] = tested on: Propionibacterium acnes (ATCC11827); test: P-acne MIC/MBC test; type: cell-based; conditions: for MIC: lowest level that inhibits growth, turbidity, 1 day
Method: The anti-microbial activity of the tested compounds were evaluated using published methods (Modugno e. al. (1994) Antimicrobial agents and Chemotherapy 38: 2362-2368; […] et. al. (1973) Antimicrobial agents and Chemotherapy 3: 40-48. Propionibacterium acnes (ATCC11827) was cultured for 20 hours at 37° C. in Reinforced Clostridal medium. The test article and positive control were dissolved in 1% DMSO with an incubation volume of 1 mL. The time of assessment was 1 day. Measurement of turbidity was used as the method of quantification. The compounds were tested in duplicate at concentrations of 250 ug/mL, 125 ug/mL, 62 ug/mL, 31 ug/mL, 16 ug/mL, 8 ug/mL, 4 ug/mL, 2 ug/mL relative to positive control ampicillin at 0.1 ug/mL.

[4] = tested on: murine melanoma cells B16-F1; test: Melanin production by murine melanoma cells B16-F1; type: cell-based; conditions: Mus musculus, B16-F1, 1 nM α-MSH, 48 hours
Method: Selected compounds were then tested for the ability to suppress melanin production by the murine melanoma cells B16-F1 as detailed below.
Murine melanoma cells B16-F1 were purchased from the ATCC (Cat #CRL-6323). Cell Titer96 AqueousOne Solution was purchased from Promega (Cat #G3582). 0.2 μm pore size, low protein binding filters were purchased from PALL Life Sciences. (Cat #PN4454).
Alpha-MSH was purchased from the Sigma Aldrich (Cat #M4135-1MG). All tissue culture reagents were purchased from VWR (phenol-red-free DMEM, cat #12001-630, L-glutamine, cat #12001-698) and Fisher Scientific (Trypsin-EDTA, cat #25-200-056).
The B16-F1 cells were maintained in cell growth media (DMEM/High Glucose supplemented with glutamine, 10% fetal bovine serum, 50 units/ml penicillin, and 50 units/mL of streptomycin) at 37° C. in a humidified atmosphere of 95% air and 5% CO2.
as §1
B16-F1 cells were seeded into the wells of clear-bottom 24-well plates at 50,000 cells per well, in 0.5 mL of cell growth media. On the following day, 0.5 mL of freshly prepared test compounds containing α-MSH were added to the wells. The cells were maintained at 37° C. in a humidified atmosphere of 95% air and 5% CO2 for 48 hours. At the end of the incubation period, melanin-containing conditioned media was removed from the cells and transferred to another plate. To measure melanin content the light absorbance of conditioned media was taken at 492 nm using a TECAN Genios plate reader.
as §2

[5] = Cutibacterium acnes, ATCC11827, 24 h, read-out: MIC
[6] = Cutibacterium acnes, ATCC11827, lowest concentration required to kill the bacterium, read-out: MBC
[7] = FIGS. 2-8, read-out: IC50, inhibition in the production of melanin
[8] = Tables 1-3, read-out: MELANIN PRODUCTION

Structure (SMILES): CC(C)=CCCC(C)=Cc1ccc(O)cc1 (mixture of isomers) [Compound 1, (E/Z)-4-(2,6-dimethylhepta-1,5-dienyl)phenol]
- CELL VIABILITY ([1]; 48 hours, Tables 1-3): 269 µM
- LD50, cell viability ([1]; mouse, 48 h): 269 µM
- pIC50 [2]: 4.05
- MIC [3, 5]: < 3.9 µg/mL
- MBC [3, 6]: < 3.9 µg/mL
- MBC ([3]; lowest concentration required to kill the bacterium): <3.9 ppm
- MIC [3]: <3.9 ppm
- pIC50 [4, 7]: 3.80
- pIC50 [4, 8]: 3.80

Structure (SMILES): CC(C)=CCC/C(C)=C/c1cc(O)cc(O)c1 [Compound 4, (E/Z)-5-(2,6-dimethylhepta-1,5-dienyl)benzene-1,3-diol]
- CELL VIABILITY ([1]; mouse, 48 h): 127 µM
- pIC50 [2]: 3.50
- MIC [3, 5]: < 3.9 µg/mL
- MBC [3, 6]: < 3.9 µg/mL
- pIC50 [4, 7]: 4.14
- pIC50 [4, 8]: 4.14

Structure (SMILES): CC(C)=CCCC(C)/C=C/c1ccc(O)cc1 (stereo not drawn) [Compound 5, (E)-4-(3,7-dimethylocta-1,6-dienyl)phenol]
- CELL VIABILITY ([1]; mouse, 48 h): 50 µM
- pIC50 [2]: 4.30
- MIC [3, 5]: < 3.9 µg/mL
- pIC50 [4, 8]: 4.14

Structure (SMILES): CC(C)=CCCC(C)/C=C/c1ccc(O)cc1O (stereo not drawn) [Compound 6, (E)-4-(3,7-dimethylocta-1,6-dienyl) benzene-1,3-diol]
- CELL VIABILITY ([1]; 48 hours, Tables 1-3): 233 µM
- LD50, cell viability ([1]; mouse, 48 h): 233 µM
- pIC50 [2]: 3.51
- MIC [3, 5]: 3.9 µg/mL (≈ 15.8 µM)
- MBC [3, 6]: 3.9 to 31.3 µg/mL (≈ 15.8 to 127 µM)
- pIC50 [4, 7]: 5.05
- pIC50 [4, 8]: 5.05

Structure (SMILES): CC(C)=CCCC(C)/C=C/c1cc(O)cc(O)c1 (stereo not drawn) [Compound 7, (E)-5-(3,7-dimethylocta-1,6-dienyl) benzene-1,3-diol]
- CELL VIABILITY ([1]; 48 hours, Tables 1-3): 152 µM
- LD50, cell viability ([1]; mouse, 48 h): 152 µM
- pIC50 [2]: 3.84
- MIC [3, 5]: 7.8 µg/mL (≈ 31.7 µM)
- MBC [3, 6]: 7.8 to 31.3 µg/mL (≈ 31.7 to 127 µM)
- pIC50 [4, 7]: 4.01
- pIC50 [4, 8]: 4.01

Structure (SMILES): CC(C)=CCCC(C)C/C=C\c1cc(O)cc(O)c1 (stereo not drawn) [Compound 15, (Z)-5-(4,8-dimethylnona-1,7-dienyl) benzene-1,3-diol]
- CELL VIABILITY ([1]; mouse, 48 h): 269 µM
- pIC50 [2]: 4.05
- MIC [3, 5]: < 3.9 µg/mL
- MBC [3, 6]: < 3.9 µg/mL
- pIC50 [4, 7]: 4.13
- pIC50 [4, 8]: 3.80
